Measurements reported in ChEMBL document CHEMBL1201862, “PubChem BioAssay data set” (2004).
Activity calls are given as the source filed them.

Columns and labels:
[1] = target: Scavenger receptor class B member 1 (Mus musculus, UniProt Q61009); experiment: inhibitors of SR-BI mediated HDL lipid uptake, dose response, ldlA[mSR-BI] cells, fluorescence, cherry pick (AID 493194); format: functional, cell-based;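 further: cellular uptake of fluorescent DiI-labeled HDL measured as cell fluorescence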
Streptococcus [2] = experiment: Group A Streptococcus viability loss, dose response, counter-screen for streptokinase expression inhibitor project, luminescence, BacTiterGlo (AID 1915); format: functional, organism-based;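 further: potency for reduction of bacterial viability or growth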
[3] = test system: Streptococcus sp. 'group A'; experiment: growth inhibition of control SK(-) GAS strain, dose response, counter-screen for streptokinase expression inhibitor project, luminescence, kanamycin, BacTiterGlo, confirmation (AID 1900); format: functional, organism-based
Streptokinase A = target: T1, Streptokinase A (Streptococcus pyogenes serotype M1, UniProt P10520); experiment: S. pyogenes streptokinase expression inhibitors, potency, dose response, plasminogen activation absorbance, OD405 (AID 1914); format: functional, Streptococcus pyogenes M1 GAS;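 further: secreted streptokinase activity via plasminogen activation per viability signal from cell pellet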
T1 sequence (P10520 whole entry): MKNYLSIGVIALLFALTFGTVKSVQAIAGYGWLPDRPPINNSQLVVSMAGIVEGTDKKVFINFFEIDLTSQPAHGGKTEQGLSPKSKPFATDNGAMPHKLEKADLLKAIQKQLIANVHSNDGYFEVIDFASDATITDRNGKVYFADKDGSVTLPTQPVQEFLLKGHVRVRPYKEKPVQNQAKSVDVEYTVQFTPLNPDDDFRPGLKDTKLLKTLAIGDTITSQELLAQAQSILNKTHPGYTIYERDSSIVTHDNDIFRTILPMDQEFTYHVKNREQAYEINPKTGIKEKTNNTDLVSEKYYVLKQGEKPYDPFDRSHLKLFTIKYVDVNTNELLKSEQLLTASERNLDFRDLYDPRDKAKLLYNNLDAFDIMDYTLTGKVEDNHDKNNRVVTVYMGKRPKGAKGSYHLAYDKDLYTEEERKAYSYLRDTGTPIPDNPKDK

Streptococcus [4] = experiment: Luminescence Microorganism-Based Dose Response Follow up to Identify Compounds Cytotoxic to Streptococcus. [Related pubchem assays: 1677 (Project Summary), 1915, 1914, 1902 (Retest at Dose), 1900 (Counter Screen), 1662 (Primary HTS)]; format: functional, organism-based
[5] = target: Voltage-gated N-type calcium channel alpha-1B subunit/Amyloid beta A4 precursor protein-binding family A member 1 (Homo sapiens, UniProt Q00975+Q02410); experiment: disruptors of Mint-PDZ/N-type channel peptide interaction – biochemical, HTRF, set 2, SAR follow-up (AID 434980); format: functional
Vero = Vero cell cytotoxicity, cytotoxicity control for flavivirus capping enzyme inhibitors (AID 588742); format: functional; details: Chlorocebus sabaeus
ORF 73 = ORF 73 (Human herpesvirus 8, UniProt O40947); experiment: inhibitors of C-LANA binding to LBS DNA, dose response, biochemical, fluorescence polarization, cherry-picked samples (AID 504725); parameters: species or system Human gammaherpesvirus 8;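 further: fluorescence polarization of a labeled DNA duplex reporting LANA DNA binding; potency is for inhibitors that block LANA binding to the DNA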
Sequence of ORF 73 (O40947 whole entry): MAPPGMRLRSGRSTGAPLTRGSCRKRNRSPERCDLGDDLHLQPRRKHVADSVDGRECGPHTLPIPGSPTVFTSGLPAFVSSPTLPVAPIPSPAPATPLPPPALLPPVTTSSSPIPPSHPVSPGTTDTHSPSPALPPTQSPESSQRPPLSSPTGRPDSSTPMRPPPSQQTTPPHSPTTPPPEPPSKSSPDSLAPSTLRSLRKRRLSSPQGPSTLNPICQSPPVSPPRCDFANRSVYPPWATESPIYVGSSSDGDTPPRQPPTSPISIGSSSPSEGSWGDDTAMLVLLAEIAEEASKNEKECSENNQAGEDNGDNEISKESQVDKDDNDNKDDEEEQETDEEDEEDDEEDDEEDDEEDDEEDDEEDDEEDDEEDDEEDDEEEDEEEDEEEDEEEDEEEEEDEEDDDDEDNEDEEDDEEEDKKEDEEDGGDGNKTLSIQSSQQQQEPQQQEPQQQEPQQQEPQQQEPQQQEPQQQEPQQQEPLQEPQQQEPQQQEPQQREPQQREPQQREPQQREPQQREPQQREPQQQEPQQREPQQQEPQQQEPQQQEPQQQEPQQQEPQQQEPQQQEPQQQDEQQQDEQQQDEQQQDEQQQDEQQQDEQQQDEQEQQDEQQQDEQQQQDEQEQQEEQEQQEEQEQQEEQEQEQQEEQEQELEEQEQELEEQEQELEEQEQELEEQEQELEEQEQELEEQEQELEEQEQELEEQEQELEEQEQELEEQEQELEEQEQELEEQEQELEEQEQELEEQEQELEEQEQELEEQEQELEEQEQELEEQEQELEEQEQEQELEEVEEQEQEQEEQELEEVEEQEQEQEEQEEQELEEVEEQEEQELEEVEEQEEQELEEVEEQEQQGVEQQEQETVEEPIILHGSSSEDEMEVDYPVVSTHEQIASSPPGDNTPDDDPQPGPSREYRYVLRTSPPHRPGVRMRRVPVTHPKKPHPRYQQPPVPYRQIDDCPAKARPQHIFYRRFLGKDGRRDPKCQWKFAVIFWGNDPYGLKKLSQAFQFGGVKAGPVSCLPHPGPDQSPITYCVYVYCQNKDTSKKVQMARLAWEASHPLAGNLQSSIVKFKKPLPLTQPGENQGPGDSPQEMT

[6] = target: Tyrosine-protein phosphatase non-receptor type 5 (Homo sapiens, UniProt P54829); experiment: STEP phosphatase inhibitors, confirmation, biochemical, fluorescence intensity, uHTS hits (AID 602372); format: functional; details: read-out: IC50_Mean
Sequence of Tyrosine-protein phosphatase non-receptor type 5 (P54829 whole entry): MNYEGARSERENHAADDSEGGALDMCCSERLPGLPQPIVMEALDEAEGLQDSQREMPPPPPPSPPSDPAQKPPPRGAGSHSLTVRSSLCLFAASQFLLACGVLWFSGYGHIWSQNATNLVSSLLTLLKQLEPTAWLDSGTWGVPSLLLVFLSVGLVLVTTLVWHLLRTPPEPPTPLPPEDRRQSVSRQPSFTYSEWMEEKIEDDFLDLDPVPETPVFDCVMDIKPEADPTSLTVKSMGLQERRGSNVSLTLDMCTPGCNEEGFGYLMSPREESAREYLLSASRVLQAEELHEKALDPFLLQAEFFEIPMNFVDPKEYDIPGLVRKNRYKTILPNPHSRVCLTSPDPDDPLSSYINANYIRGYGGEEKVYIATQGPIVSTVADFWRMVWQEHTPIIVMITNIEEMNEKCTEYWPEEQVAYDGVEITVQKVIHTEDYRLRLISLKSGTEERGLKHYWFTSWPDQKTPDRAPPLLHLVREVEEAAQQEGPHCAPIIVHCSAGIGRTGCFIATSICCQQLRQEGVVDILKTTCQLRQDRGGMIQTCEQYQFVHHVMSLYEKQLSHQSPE

[7] = target: Dual specificity protein phosphatase 3 (Homo sapiens, UniProt P51452); experiment: VHR phosphatase inhibition, dose response, selectivity assay for STEP inhibitor project, biochemical (AID 602374); format: functional; details: read-out: IC50_Mean
Sequence of Dual specificity protein phosphatase 3 (P51452 whole entry): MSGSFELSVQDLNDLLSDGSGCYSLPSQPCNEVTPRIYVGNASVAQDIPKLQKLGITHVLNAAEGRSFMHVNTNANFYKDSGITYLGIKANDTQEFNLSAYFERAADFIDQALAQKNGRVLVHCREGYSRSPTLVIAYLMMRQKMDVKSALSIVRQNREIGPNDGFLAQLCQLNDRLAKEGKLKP

Genome polyprotein = Genome polyprotein (dengue virus type 2, UniProt P29990); experiment: Dengue-2 NS5 methyltransferase inhibitors, primary screen, biochemical, confirmation dose response (AID 588689); format: functional
Sequence of Genome polyprotein (P29990 2492-3391 limits assumed): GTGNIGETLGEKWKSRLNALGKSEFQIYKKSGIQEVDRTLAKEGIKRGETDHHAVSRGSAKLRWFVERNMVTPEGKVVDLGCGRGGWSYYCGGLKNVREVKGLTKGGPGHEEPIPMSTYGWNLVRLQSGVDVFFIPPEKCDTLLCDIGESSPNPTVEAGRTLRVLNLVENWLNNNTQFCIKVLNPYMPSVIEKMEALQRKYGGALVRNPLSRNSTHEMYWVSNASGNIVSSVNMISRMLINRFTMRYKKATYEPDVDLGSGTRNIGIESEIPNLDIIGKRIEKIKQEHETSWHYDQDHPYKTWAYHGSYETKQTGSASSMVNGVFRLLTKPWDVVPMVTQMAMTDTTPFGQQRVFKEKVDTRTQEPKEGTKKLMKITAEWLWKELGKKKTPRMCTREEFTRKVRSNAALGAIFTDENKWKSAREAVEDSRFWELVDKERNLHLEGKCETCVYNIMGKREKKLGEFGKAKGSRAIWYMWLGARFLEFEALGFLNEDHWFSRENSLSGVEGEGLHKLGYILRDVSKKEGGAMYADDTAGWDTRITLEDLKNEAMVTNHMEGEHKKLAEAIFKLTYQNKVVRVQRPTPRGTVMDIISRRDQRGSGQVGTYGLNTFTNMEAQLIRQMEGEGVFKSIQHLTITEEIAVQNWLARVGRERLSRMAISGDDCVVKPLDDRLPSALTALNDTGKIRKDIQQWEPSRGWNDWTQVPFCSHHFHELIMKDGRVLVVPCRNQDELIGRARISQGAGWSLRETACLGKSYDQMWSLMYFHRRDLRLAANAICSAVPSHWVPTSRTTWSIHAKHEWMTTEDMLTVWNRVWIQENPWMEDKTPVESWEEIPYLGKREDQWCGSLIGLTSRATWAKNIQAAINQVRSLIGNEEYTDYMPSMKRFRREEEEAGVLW

[8] = target: Tyrosine-protein phosphatase non-receptor type 11 (Homo sapiens, UniProt Q06124); experiment: SHP2 phosphatase inhibition, dose response, selectivity assay for STEP inhibitor project, biochemical (AID 602367); format: functional; details: read-out: IC50_Mean
Sequence of Tyrosine-protein phosphatase non-receptor type 11 (Q06124 whole entry): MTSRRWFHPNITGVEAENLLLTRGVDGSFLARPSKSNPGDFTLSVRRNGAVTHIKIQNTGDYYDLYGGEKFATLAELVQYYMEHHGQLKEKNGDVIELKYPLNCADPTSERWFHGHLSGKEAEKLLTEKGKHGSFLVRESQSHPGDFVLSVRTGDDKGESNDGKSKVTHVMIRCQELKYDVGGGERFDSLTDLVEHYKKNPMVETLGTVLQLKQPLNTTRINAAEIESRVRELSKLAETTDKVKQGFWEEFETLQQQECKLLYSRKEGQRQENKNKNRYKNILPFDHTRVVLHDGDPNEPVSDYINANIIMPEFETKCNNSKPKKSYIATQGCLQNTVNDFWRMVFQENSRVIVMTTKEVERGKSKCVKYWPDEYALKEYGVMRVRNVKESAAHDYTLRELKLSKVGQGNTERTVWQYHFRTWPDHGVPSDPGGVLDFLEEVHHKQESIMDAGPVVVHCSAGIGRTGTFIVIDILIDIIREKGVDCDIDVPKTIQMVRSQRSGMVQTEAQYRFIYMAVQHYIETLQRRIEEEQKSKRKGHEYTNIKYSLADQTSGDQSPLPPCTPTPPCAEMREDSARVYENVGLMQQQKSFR

HeLa = experiment: HeLa cell cytotoxicity, dose response, cytotoxicity control, 24 h, cherry-picked samples (AID 504726); format: functional, cell-based; details: Homo sapiens;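 further: potency for cytotoxicity as loss of luminescence signal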
[9] = target: Cyclin-dependent kinase 5/CDK5 activator 1 (Homo sapiens, UniProt Q00535); experiment: CDK5/p35 kinase inhibitors, dose response, biochemical, cherry-picked samples, set 2 (AID 504545)
Sequence of Cyclin-dependent kinase 5/CDK5 activator 1 (Q00535 whole entry): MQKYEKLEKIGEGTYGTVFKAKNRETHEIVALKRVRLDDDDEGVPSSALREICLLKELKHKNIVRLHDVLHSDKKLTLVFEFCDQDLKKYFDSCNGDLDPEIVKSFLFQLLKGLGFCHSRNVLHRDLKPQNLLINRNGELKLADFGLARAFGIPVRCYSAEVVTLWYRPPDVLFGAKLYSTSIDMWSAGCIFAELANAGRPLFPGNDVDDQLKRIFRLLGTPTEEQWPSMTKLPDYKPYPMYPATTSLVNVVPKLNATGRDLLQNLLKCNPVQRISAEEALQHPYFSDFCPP
Sequence of Cyclin-dependent kinase 5/CDK5 activator 1 (Q15078 whole entry, further chain): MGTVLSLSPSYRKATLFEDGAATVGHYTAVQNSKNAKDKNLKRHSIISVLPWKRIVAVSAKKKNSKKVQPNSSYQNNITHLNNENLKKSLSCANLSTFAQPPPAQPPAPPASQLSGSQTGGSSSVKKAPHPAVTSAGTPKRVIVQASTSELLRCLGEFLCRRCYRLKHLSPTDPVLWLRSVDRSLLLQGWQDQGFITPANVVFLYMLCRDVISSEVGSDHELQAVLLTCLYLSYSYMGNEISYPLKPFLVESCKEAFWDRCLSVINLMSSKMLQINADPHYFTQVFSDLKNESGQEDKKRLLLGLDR

Sequence of Scavenger receptor class B member 1 (Q61009 whole entry): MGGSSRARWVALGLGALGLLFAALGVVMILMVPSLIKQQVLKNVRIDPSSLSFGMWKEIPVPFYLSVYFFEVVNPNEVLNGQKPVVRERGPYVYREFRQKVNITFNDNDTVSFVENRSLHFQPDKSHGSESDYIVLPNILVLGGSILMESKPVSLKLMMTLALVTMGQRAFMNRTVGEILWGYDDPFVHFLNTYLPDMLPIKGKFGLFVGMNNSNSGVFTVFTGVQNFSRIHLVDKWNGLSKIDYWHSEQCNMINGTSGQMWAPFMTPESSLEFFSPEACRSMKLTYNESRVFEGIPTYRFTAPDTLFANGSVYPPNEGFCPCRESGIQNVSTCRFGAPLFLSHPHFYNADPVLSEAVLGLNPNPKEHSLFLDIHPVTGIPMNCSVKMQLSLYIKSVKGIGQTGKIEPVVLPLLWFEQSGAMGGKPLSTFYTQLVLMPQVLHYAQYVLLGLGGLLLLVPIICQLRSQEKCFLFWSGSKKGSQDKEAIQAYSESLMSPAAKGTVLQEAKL

Cc1cc(C(=O)C(C)OC(=O)C2=NNC(=O)CC2)c(C)n1-c1ccc(OC(F)F)cc1 (centres undefined)
AC50 [1]: 3.29 µM (active)

CCOC(=O)c1c(NC(=O)c2cccs2)sc(CC)c1-c1cccs1
EC50 (Streptococcus [2]): > 150 µM (not active) | EC50 [3]: 47.6 µM (active) | EC50 (Streptokinase A): 9.89 µM (active) | EC50 (Streptococcus [4]): > 500 µM (not active)

CN1CCCC1CCNC(=O)c1cc(-c2ccco2)nc2ccccc12 (centres undefined)
IC50 [5]: 24.5 µM (active)

CC1=C(O)C(O)=C(C2=C(O)C(O)=C(C)C(=O)C2=O)C(=O)C1=O
CC50 (Vero): 31.7 µM (active) | AC50 (ORF 73): 312 µM (active) | IC50 [6]: > 80 µM (inactive) | IC50 [7]: 1.27 µM (active) | IC50 (Genome polyprotein): 28.3 µM (active) | IC50 [8]: < 0.16 µM (active) | AC50 (HeLa): 61.8 µM (active)

CC(C)n1cnc2c(Nc3cccc(Cl)c3)nc(NCCCO)nc21
AC50 [9]: 2.59 µM (active)
